ChEMBL document CHEMBL5543148, “Discovery of First-in-Class PROTAC Degraders of SARS-CoV-2 Main Protease” (J Med Chem, 2024)

Assays:
SARS-CoV-2 [1] = experiment: Antiviral activity against SARS-CoV-2 harboring NSP5 E166A mutant infected in human A549-ACE2 cells measured after 48 hrs by RT-PCR analysis; assay type: functional, organism-based, Severe acute respiratory syndrome coronavirus 2
SARS-CoV-2 [2] = experiment: Antiviral activity against SARS-CoV-2 harboring recombinant live-attenuated delta3678 mGFP infected in human A549-ACE2 cells measured after 48 hrs by RT-PCR analysis; assay type: functional, organism-based; settings: Severe acute respiratory syndrome coronavirus 2, A549-ACE2, 48 h

Question: With `C[C@@H](OC(C)(C)C)[C@H](NC(=O)OCc1cccc(OCCCCCCOc2cccc3c2C(=O)N(C2CCC(=O)NC2=O)C3=O)c1)C(=O)N[C@@H](CC1CCCCC1)C(=O)N[C@H](C=O)C[C@@H]1CCNC1=O` (some centres not stated) as the molecule, how does the EC50 (SARS-CoV-2 [1]) read?
Answer: 460 nM

Question: And the EC50 (SARS-CoV-2 [2])?
Answer: 2200 nM
